According to ChEMBL document CHEMBL5723584 (2023):

Experiments:
[1] = target: BMP-2-inducible protein kinase (Homo sapiens, UniProt Q9NSY1); experiment: Promega NanoBRET (BMP2K)
[2] = target: 5'-AMP-activated protein kinase catalytic subunit alpha-2 (Homo sapiens) (UniProt P54646); experiment: activity of AMPKalpha2(h) at 1.0 µM in the Eurofins Kinase panel; conditions: Compound concentration 1.0 uM
ATR/ATRIP (Homo sapiens) = ATR/ATRIP (Homo sapiens) (UniProt Q13535+Q8WXE1); experiment: activity of ATR/ATRIP(h) at 1.0 µM in the Eurofins Kinase panel; format: protein-complex assay; conditions: Compound concentration 1.0 uM
[3] = target: Tyrosine-protein kinase receptor UFO (Homo sapiens) (UniProt P30530); experiment: activity of Axl(h) at 1.0 µM in the Eurofins Kinase panel; conditions: Compound concentration 1.0 uM
[4] = target: Tyrosine-protein kinase Blk (Homo sapiens) (UniProt P51451); experiment: activity of Blk(h) at 1.0 µM in the Eurofins Kinase panel; conditions: Compound concentration 1.0 uM
[5] = target: Calcium/calmodulin-dependent protein kinase type II subunit alpha (Homo sapiens) (UniProt Q9UQM7); experiment: activity of CaMKIIalpha(h) at 1.0 µM in the Eurofins Kinase panel; conditions: Compound concentration 1.0 uM
Calcium/calmodulin-dependent protein kinase type II subunit alpha (Homo sapiens), sequence (Q9UQM7 whole entry): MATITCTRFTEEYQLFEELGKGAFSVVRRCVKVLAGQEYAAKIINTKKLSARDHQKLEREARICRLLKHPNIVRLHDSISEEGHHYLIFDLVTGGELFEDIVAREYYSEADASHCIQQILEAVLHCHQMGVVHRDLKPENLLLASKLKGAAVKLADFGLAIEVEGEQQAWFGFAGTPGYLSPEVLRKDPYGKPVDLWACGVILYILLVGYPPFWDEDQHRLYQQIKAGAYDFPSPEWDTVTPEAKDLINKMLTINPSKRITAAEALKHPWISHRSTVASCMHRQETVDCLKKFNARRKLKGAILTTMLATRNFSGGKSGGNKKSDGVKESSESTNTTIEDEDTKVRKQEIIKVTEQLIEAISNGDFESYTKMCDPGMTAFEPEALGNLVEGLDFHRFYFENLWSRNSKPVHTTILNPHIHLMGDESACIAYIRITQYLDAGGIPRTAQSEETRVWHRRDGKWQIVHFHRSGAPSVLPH

[6] = target: Calcium/calmodulin-dependent protein kinase type II subunit beta (Homo sapiens) (UniProt Q13554); experiment: activity of CaMKIIbeta(h) at 1.0 µM in the Eurofins Kinase panel; conditions: Compound concentration 1.0 uM
[7] = target: Serine/threonine-protein kinase Chk2 (Homo sapiens) (UniProt O96017); experiment: activity of CHK2(h) at 1.0 µM in the Eurofins Kinase panel; conditions: Compound concentration 1.0 uM
[8] = target: Casein kinase I isoform epsilon (Homo sapiens) (UniProt P49674); experiment: activity of CK1epsilon(h) at 1.0 µM in the Eurofins Kinase panel; conditions: Compound concentration 1.0 uM
[9] = target: Casein kinase II subunit alpha (Homo sapiens) (UniProt P68400); experiment: activity of CK2alpha1(h) at 1.0 µM in the Eurofins Kinase panel; conditions: Compound concentration 1.0 uM
[10] = target: Serine/threonine-protein kinase DCLK1 (Homo sapiens) (UniProt O15075); experiment: activity of DCAMKL1(h) at 1.0 µM in the Eurofins Kinase panel; conditions: Compound concentration 1.0 uM
[11] = target: Ephrin type-B receptor 1 (Homo sapiens) (UniProt P54762); experiment: activity of EphB1(h) at 1.0 µM in the Eurofins Kinase panel; conditions: Compound concentration 1.0 uM
[12] = target: Ephrin type-B receptor 4 (Homo sapiens) (UniProt P54760); experiment: activity of EphB4(h) at 1.0 µM in the Eurofins Kinase panel; conditions: Compound concentration 1.0 uM
[13] = target: Vascular endothelial growth factor receptor 1 (Homo sapiens) (UniProt P17948); experiment: activity of Flt1(h) at 1.0 µM in the Eurofins Kinase panel; conditions: Compound concentration 1.0 uM
[14] = target: eIF-2-alpha kinase GCN2 (Homo sapiens) (UniProt Q9P2K8); experiment: activity of GCN2(h) at 1.0 µM in the Eurofins Kinase panel; conditions: Compound concentration 1.0 uM
[15] = target: G protein-coupled receptor kinase 6 (Homo sapiens) (UniProt P43250); experiment: activity of GRK6(h) at 1.0 µM in the Eurofins Kinase panel; conditions: Compound concentration 1.0 uM
[16] = target: Interleukin-1 receptor-associated kinase 1 (Homo sapiens) (UniProt P51617); experiment: activity of IRAK1(h) at 1.0 µM in the Eurofins Kinase panel; conditions: Compound concentration 1.0 uM
[17] = target: Tyrosine-protein kinase ITK/TSK (Homo sapiens) (UniProt Q08881); experiment: activity of Itk(h) at 1.0 µM in the Eurofins Kinase panel; conditions: Compound concentration 1.0 uM
[18] = target: Tyrosine-protein kinase JAK2 (Homo sapiens) (UniProt O60674); experiment: activity of JAK2(h) at 1.0 µM in the Eurofins Kinase panel; conditions: Compound concentration 1.0 uM
[19] = target: Serine/threonine-protein kinase LATS1 (Homo sapiens) (UniProt O95835); experiment: activity of LATS1(h) at 1.0 µM in the Eurofins Kinase panel; conditions: Compound concentration 1.0 uM
[20] = target: Mitogen-activated protein kinase kinase kinase kinase 3 (Homo sapiens) (UniProt Q8IVH8); experiment: activity of MAP4K3(h) at 1.0 µM in the Eurofins Kinase panel; conditions: Compound concentration 1.0 uM
Mitogen-activated protein kinase kinase kinase kinase 3 (Homo sapiens), sequence (Q8IVH8 whole entry): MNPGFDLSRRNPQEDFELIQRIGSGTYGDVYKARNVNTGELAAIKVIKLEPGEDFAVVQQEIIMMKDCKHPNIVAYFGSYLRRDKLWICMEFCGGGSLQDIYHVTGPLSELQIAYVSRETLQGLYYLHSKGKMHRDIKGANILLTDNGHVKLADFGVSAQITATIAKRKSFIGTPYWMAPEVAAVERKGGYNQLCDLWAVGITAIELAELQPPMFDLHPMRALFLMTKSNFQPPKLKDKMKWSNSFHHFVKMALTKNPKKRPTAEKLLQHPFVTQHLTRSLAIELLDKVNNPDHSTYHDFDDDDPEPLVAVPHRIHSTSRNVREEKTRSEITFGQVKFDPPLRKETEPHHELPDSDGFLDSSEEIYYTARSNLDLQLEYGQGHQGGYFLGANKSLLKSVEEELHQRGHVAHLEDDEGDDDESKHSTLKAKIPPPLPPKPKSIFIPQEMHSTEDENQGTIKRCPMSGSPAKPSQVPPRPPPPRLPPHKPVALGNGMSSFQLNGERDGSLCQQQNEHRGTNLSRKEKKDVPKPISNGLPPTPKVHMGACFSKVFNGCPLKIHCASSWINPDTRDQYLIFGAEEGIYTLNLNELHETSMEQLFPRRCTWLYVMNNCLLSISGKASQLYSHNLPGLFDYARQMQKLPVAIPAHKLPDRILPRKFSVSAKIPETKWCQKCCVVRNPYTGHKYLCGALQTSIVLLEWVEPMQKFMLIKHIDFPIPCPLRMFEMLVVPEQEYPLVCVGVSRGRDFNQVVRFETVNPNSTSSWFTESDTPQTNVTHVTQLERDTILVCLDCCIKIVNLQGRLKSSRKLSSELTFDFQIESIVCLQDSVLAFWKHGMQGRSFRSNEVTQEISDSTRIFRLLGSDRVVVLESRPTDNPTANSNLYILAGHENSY

[21] = target: Mitogen-activated protein kinase kinase kinase kinase 4 (Homo sapiens) (UniProt O95819); experiment: activity of MAP4K4(h) at 1.0 µM in the Eurofins Kinase panel; conditions: Compound concentration 1.0 uM
[22] = target: MAP kinase-activated protein kinase 3 (Homo sapiens) (UniProt Q16644); experiment: activity of MAPKAP-K3(h) at 1.0 µM in the Eurofins Kinase panel; conditions: Compound concentration 1.0 uM
[23] = target: Dual specificity mitogen-activated protein kinase kinase 6 (Homo sapiens) (UniProt P52564); experiment: activity of MKK6(h) at 1.0 µM in the Eurofins Kinase panel; conditions: Compound concentration 1.0 uM
[24] = target: Serine/threonine-protein kinase 4 (Homo sapiens) (UniProt Q13043); experiment: activity of MST1(h) at 1.0 µM in the Eurofins Kinase panel; conditions: Compound concentration 1.0 uM
Serine/threonine-protein kinase 4 (Homo sapiens), sequence (Q13043 whole entry): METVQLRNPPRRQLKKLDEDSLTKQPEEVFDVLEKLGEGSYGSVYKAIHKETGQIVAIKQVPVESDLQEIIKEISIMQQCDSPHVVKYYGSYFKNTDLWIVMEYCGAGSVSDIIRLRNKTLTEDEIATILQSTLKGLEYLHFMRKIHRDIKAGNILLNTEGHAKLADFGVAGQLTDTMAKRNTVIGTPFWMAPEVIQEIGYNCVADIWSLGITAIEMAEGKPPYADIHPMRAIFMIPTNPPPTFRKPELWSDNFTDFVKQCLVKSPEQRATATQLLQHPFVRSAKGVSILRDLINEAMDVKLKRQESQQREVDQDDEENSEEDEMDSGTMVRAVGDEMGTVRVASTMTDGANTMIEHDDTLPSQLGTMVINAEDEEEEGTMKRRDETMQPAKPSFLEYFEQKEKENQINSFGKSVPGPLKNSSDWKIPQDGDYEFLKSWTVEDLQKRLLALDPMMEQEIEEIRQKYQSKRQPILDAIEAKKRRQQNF

[25] = target: Serine/threonine-protein kinase Nek4 (Homo sapiens) (UniProt P51957); experiment: activity of NEK4(h) at 1.0 µM in the Eurofins Kinase panel; conditions: Compound concentration 1.0 uM
[26] = target: PI3K p110 beta/p85 alpha (Homo sapiens) (UniProt P27986+P42338); experiment: activity of PI3 Kinase (p110beta/p85alpha)(h) at 1.0 µM in the Eurofins Kinase panel; format: protein-complex assay; conditions: Compound concentration 1.0 uM
[27] = target: Phosphatidylinositol 4-phosphate 3-kinase C2 domain-containing subunit alpha (Homo sapiens) (UniProt O00443); experiment: activity of PI3KC2alpha(h) at 1.0 µM in the Eurofins Kinase panel; conditions: Compound concentration 1.0 uM
Phosphatidylinositol 4-phosphate 3-kinase C2 domain-containing subunit alpha (Homo sapiens), sequence (O00443 whole entry, the tested form may be a part): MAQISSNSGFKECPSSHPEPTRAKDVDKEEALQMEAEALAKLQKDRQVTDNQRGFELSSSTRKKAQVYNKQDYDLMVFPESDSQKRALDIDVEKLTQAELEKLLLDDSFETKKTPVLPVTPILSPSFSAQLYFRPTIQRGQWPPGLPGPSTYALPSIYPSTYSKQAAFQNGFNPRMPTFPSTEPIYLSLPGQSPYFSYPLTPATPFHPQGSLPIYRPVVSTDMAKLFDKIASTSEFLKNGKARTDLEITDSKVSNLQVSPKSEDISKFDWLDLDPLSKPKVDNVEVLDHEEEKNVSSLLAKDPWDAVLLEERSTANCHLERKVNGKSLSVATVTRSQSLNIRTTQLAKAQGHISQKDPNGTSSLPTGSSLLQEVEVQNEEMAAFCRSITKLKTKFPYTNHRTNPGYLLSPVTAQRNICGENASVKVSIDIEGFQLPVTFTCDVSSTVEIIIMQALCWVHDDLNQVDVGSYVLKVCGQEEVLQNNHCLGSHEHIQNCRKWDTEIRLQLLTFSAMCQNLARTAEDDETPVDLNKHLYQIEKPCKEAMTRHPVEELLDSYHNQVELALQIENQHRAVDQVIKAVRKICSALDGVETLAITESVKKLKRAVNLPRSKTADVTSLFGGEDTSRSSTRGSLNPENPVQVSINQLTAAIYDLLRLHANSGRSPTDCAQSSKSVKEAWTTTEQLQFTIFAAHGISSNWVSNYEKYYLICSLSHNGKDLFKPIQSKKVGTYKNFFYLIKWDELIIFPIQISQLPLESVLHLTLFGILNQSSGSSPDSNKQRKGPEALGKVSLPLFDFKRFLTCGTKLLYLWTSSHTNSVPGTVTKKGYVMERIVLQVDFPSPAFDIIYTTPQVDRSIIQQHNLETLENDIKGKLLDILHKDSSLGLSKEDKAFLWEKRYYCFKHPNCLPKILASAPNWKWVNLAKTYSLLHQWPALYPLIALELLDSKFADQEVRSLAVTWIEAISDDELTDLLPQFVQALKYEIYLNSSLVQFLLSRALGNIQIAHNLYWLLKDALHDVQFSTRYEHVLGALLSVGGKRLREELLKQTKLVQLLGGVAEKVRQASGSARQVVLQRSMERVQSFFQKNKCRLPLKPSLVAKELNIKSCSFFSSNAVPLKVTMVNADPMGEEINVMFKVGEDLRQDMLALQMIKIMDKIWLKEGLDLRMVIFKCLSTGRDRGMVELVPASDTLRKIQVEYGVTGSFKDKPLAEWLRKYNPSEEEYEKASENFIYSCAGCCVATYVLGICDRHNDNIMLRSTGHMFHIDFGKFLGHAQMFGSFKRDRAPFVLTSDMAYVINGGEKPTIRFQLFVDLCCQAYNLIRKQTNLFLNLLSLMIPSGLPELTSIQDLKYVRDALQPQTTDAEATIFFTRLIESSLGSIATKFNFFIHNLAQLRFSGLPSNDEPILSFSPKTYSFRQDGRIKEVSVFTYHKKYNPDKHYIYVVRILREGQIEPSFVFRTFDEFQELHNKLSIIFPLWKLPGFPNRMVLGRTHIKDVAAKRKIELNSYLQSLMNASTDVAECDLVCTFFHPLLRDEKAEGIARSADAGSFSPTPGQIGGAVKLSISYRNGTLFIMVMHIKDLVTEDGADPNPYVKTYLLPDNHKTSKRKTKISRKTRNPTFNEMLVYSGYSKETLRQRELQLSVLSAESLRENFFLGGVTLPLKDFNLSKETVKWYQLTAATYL

[28] = target: Phosphatidylinositol 4-phosphate 5-kinase type-1 alpha (Homo sapiens) (UniProt Q99755); experiment: activity of PIP5K1alpha(h) at 1.0 µM in the Eurofins Kinase panel; conditions: Compound concentration 1.0 uM
[29] = target: Proto-oncogene tyrosine-protein kinase receptor Ret (Homo sapiens) (UniProt P07949); experiment: activity of Ret(h) at 1.0 µM in the Eurofins Kinase panel; conditions: Compound concentration 1.0 uM
[30] = target: Serine/threonine-protein kinase Sgk1 (Homo sapiens) (UniProt O00141); experiment: activity of SGK(h) at 1.0 µM in the Eurofins Kinase panel; conditions: Compound concentration 1.0 uM
[31] = target: Serine/threonine-protein kinase SIK1 (Homo sapiens) (UniProt P57059); experiment: activity of SIK(h) at 1.0 µM in the Eurofins Kinase panel; conditions: Compound concentration 1.0 uM
[32] = target: Serine/threonine-protein kinase SIK3 (Homo sapiens) (UniProt Q9Y2K2); experiment: activity of SIK3(h) at 1.0 µM in the Eurofins Kinase panel; conditions: Compound concentration 1.0 uM
Serine/threonine-protein kinase SIK3 (Homo sapiens), sequence (Q9Y2K2 whole entry, looked up): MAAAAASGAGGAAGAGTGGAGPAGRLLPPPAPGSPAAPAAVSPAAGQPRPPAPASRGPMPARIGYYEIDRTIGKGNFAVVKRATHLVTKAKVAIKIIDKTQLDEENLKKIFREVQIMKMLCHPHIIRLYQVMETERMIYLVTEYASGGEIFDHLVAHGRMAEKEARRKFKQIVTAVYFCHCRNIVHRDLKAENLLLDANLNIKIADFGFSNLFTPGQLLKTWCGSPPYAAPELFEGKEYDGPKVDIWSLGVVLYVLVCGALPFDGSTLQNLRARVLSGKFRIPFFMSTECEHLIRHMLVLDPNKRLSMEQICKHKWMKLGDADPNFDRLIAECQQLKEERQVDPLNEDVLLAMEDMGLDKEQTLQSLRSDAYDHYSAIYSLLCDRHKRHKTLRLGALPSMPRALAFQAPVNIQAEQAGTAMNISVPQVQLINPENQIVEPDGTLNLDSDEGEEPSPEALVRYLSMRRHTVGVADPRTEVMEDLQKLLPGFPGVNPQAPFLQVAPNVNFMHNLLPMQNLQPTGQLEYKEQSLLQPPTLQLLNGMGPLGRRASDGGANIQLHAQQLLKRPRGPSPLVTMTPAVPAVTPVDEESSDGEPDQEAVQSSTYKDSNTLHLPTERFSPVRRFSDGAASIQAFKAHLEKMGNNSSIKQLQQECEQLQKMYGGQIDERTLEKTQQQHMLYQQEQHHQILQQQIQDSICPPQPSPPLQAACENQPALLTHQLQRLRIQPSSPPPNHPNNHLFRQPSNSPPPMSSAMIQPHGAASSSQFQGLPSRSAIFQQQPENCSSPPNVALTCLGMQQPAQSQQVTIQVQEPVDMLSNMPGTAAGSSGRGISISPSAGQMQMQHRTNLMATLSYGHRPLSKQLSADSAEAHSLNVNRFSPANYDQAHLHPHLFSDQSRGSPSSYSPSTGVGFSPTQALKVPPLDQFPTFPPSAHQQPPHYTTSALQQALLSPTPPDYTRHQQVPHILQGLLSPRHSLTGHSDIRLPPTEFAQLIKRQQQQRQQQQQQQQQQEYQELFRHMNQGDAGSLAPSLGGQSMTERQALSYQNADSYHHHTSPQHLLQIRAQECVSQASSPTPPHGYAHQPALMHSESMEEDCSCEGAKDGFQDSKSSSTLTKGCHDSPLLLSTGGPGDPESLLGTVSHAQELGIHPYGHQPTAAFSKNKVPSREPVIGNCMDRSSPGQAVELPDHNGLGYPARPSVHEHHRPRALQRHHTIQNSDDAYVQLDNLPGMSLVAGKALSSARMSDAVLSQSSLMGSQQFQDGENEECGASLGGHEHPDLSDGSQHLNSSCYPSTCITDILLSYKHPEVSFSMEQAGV

[33] = target: Serine/threonine-protein kinase 32A (Homo sapiens) (UniProt Q8WU08); experiment: activity of STK32A(h) at 1.0 µM in the Eurofins Kinase panel; conditions: Compound concentration 1.0 uM
[34] = target: STE20/SPS1-related proline-alanine-rich protein kinase (Homo sapiens) (UniProt Q9UEW8); experiment: activity of STK39(h) at 1.0 µM in the Eurofins Kinase panel; conditions: Compound concentration 1.0 uM
[35] = target: Serine/threonine-protein kinase TAO2 (Homo sapiens) (UniProt Q9UL54); experiment: activity of TAO2(h) at 1.0 µM in the Eurofins Kinase panel; conditions: Compound concentration 1.0 uM
[36] = target: Tyrosine-protein kinase Tec (Homo sapiens) (UniProt P42680); experiment: activity of Tec(h) activated at 1.0 µM in the Eurofins Kinase panel; conditions: Compound concentration 1.0 uM
[37] = target: Testis-specific serine/threonine-protein kinase 1 (Homo sapiens) (UniProt Q9BXA7); experiment: activity of TSSK1(h) at 1.0 µM in the Eurofins Kinase panel; conditions: Compound concentration 1.0 uM

For `Cc1cc2c(-c3ccc(NC(=O)[C@H](N)CC(C)(C)C)cc3C)ccnc2[nH]1`, the IC50 [1] was > 10 µM (not active), the activity [2] was 117% and the activity (ATR/ATRIP (Homo sapiens)) was 110%. The activity [3] was 91%, the activity [4] was 88% and the activity [5] was 88%. It also gave an activity [6] of 93%, an activity [7] of 95% and an activity [8] of 96%. The activity [9] was 112%, the activity [10] was 95% and the activity [11] was 83%. It also gave an activity [12] of 107%, an activity [13] of 125% and an activity [14] of 101%. It also gave an activity [15] of 95%, an activity [16] of 95% and an activity [17] of 86%. For the same molecule, the activity [18] was 104%, the activity [19] was 90% and the activity [20] was 109%. For the same molecule, the activity [21] was 101%, the activity [22] was 125% and the activity [23] was 101%. For the same molecule, the activity [24] was 76%, the activity [25] was 90% and the activity [26] was 102%. For the same molecule, the activity [27] was 102%, the activity [28] was 103% and the activity [29] was 97%. For the same molecule, the activity [30] was 113%, the activity [31] was 105% and the activity [32] was 105%. For the same molecule, the activity [33] was 90%, the activity [34] was 102% and the activity [35] was 90%. For the same molecule, the activity [36] was 126% and the activity [37] was 116%.
